Assay results: US20160060602A1, “FUSION MIXTURE” (FORSCHUNGSZENTRUM JÜLICH GMBH, priority 2013, published 2016)

Test system: MDA-MB-231 cancer cells
Test: Doxorubicin delivery into cancer cells (fluorescence microscopy)
Assay type: cell-based
Settings: MDA-MB-231 cells, 10-minute incubation, same amount of doxorubicin (2 μg)
Method: The components of fusion liposomes, DOTAL (molecules of type A) and Doxorubicin (molecules of type B), were mixed at a ratio of 1:0.1 mol/mol from 1 mg/ml parent solutions in chloroform.
Following homogenization of the lipid molecules with the aromatic doxorubicin, the organic solvent was removed under vacuum. The dried mixture was placed in 20 mM HEPES solution having a pH of 7.4 and homogenized in an ultrasonic bath for 20 minutes. The final concentration of the fusion mixture was set to 2 mg/ml. After a dilution of 1/100 v/v in DMEM medium, 500 μl of the fusion mixture was added to approximately 100,000 adherent MDA-MB-231 cancer cells and incubated for 10 minutes at 37° C.
A further cell sample was incubated with the same amount of doxorubicin (2 μg) in culture medium without fusion mixture for control purposes. The conventional dosage is 1 mg/ml.
In addition, doxorubicin was introduced into neutral DOPC liposomes (without molecules of type A) (DOPC:Dox at a ratio of 1:0.1 mol/mol) and added to adherent cells in the same concentration as in the other sample (2 μg/ml). […] The results were then compared to each other.

SMILES: COc1cccc2c1C(=O)c1c(O)c3c(c(O)c1C2=O)C[C@@](O)(C(=O)CO)C[C@@H]3O[C@H]1C[C@H](N)[C@H](O)[C@H](C)O1 [free doxorubicin, doxorubicin]
- doxorubicin uptake (fluorescent signal in cells): low fluorescent signal
